Columns and labels:
[1] = tested on: C57BL/6 mice fed with HFD; experiment: Insulin tolerance test in HFD-fed C57BL/6 mice; assay type: in vivo; conditions: 15 mg/kg 3 times a week for 3 weeks
Protocol: At 4 months of age, an insulin tolerance test was performed on fasted C57BL/6 male mice following HFD feeding for 9 weeks following Compound 1 or saline with DMSO injections. Mice received an i.p. injection of human insulin (Actrapid) at a dosage of 0.88 units/kg followed by glucose checks every 20 minutes. […] Glucose measurements were assessed on blood from the tail following a tail snip at indicated time-points using a blood glucometer (Accu-Chek) and test strips (Accu-Chek).
Experimental design: C57BL/6 mice fed for 6 weeks with HFD were injected with 15 mg/kg Compound 1 (or saline+DMSO) 3 times a week for 3 weeks (n=6). Whole-blood glucose levels during an insulin tolerance test (ITT) in HFD fed Compound 1-treated mice vs. HFD-fed saline-treated mice and normal-diet fed mice (control ND); minutes indicate time after insulin injection. N.s.=not significant.

Sgp130FC mice = experiment: Liver triglycerides and lipid accumulation in Sgp130FC mice (NASH model); assay type: in vivo
Protocol: Sgp130FC mice specifically blocks IL-6 trans-signaling without affecting classic IL-6 signaling. […] Nine-month-old Sgp130FC mice were injected i.p. with Compound 1 (7.5 mg/kg) or vehicle control twice a week for four weeks (total of 8 injections). The mice were sacrificed after 4 weeks, triglyceride levels were measured from liver and skeletal muscle and hepatic lipid accumulation was visualized using H&E staining.
Compound 1 and AntagomiR injections to mice. C57BL/6 male mice, 7-8 weeks old, or Sgp130FC, 9-month-old male mice, were injected i.p. with 7.5 mg/kg Compound 1 dissolved in saline and 3% DMSO. Saline was injected as control. Mice were hydrodynamic tail vain injected with antagomiR-122 or antagomiR-control (negative control) (5 μg/mouse in 1.5 ml saline). Mice were sacrificed according to the legend of the figure describing the experimental results and the livers, white adipose and skeletal muscle tissues were frozen in liquid nitrogen or in OCT embedded frozen blocks, for further RNA and histologic analysis. AntagomiRs were obtained from Sigma Aldrich, see Table 3.
Triglycerides and β-hydroxybutyrate quantification. To determine the liver and muscle lipid content, muscle and liver tissues (40-80 mg) were homogenized in 0.5 ml of chloroform: Tris solution (v/v, 1:1), the homogenate was transferred to 1 ml of chloroform: methanol solution (v/v, 2:1) centrifuged at 3000 rpm for 10 min. The organic phase was mixed with 5% Triton X100 in chloroform, dried and re-dissolved in water. After lipid extraction, TG concentration in samples was measured with Triglyceride Quantification Kit (BioVision), according to the manufactures instructions. β-hydroxybutyrate was determined utilizing commercial colorimetric kits (BioVision) directly from plasma samples.

[2] = tested on: C57BL/6 mice fed with atherogenic diet; experiment: Atherogenic (fibrotic) diet mouse model: liver damage, inflammation, fibrosis; assay type: in vivo
Protocol: Male C57BL/6J mice, 7 to 8 weeks old, were housed randomly in standard cages and were fed a HFD, or atherogenic diet (consisting 1% Chol and 0.5% cholic acid, see also Table 3). All mice had free access to water during the experimental period. During the feeding period body weight was monitored every 3 days. In the HFD experiment, after 4 or 6 weeks, the resultant obese mice were treated with antagomiR-122 ([…] once a week for 3 weeks), or i.p. injected with Compound 1 (RORα agonist, 7.5 mg/kg twice a week for 3 weeks; or 15 mg/kg 3 times a week for 3 weeks). The obese control (HFD) group was administered only saline with DMSO and antagomiR-control. After 3 weeks of treatment mice were sacrificed and livers were taken for RNA-seq analysis. Livers, white adipose, and skeletal muscle tissues were frozen in liquid nitrogen or in optimum cutting temperature embedded frozen blocks, for further RNA and histologic analysis. In the atherogenic diet experiment mice were treated with 15 mg/kg Compound 1 after 3 weeks with the diet. After 3.5 weeks of treatment, mice were sacrificed, and the livers were frozen in liquid nitrogen or in optimum cutting temperature embedded frozen blocks. Plasma was collected from atherogenic diet-fed mice and saved in −20° C. for ALT and AST analysis using the Reflotron® Analyzer and test-strips (Roche).
Livers and adipose samples were placed in 4% buffered formaldehyde for 24 hours, followed by 80% ethanol and then embedded in paraffin blocks. Liver and adipose tissues were cut into […], deparaffinized with xylene and hydrated through graded ethanol. For the H&E staining, tissue sections were stained with hematoxylin (Emmonya Biotech Ltd.) and eosin (Leica, Surgipath). Liver macrophages were stained using rat anti-mouse F4/80 antigen (Serotec), followed by anti-Rat HRP (Histofine) and developed with a DAB kit (Zymed). Liver sections were stained for Masson Trichrome (Sigma). Liver CD3+ T cells were stained using Rat anti human-CD3-antibody (Bio-Rad), followed by anti-Rat HRP (Histofine) and developed with AEC (Invitrogen). α-SMA positive cells were stained using mouse anti-Human smooth Muscle Actin antibody (Dako), followed by anti-mouse HRP (Dako) and developed with DAB. The percentage area stained positively per high power field was calculated by ImageJ Software in 5-10 random fields.
Experimental design: C57BL/6 mice fed for 3 weeks with atherogenic diet (to induce fibrosis) and injected with 15 mg/kg Compound 1 (or saline+DMSO) 3 times a week for 3.5 week (n=8).
Experimental design: C57BL/6 mice fed for 3 weeks with atherogenic diet (to induce fibrosis) and injected with 15 mg/kg Compound 1 (or saline+DMSO) 3 times a week for 3.5 week (n=8). Representative microphotographs of H&E, CD3, and F4/80-stained livers taken from saline or Compound 1-treated mice are shown in FIG. 12A, where scale bars represent 10 μm. The graphs shown in FIG. 12B show quantification of positively-stained F4/80 areas using ImageJ.

HuH7 cell = experiment: LDH release from HuH7 cells; assay type: cell-based, human; conditions: HuH7, 16 h exposure, data not shown
[3] = Cellular toxicity assay in CEM cells; assay type: cell-based; conditions: human, CEM (human lymphoblastoid) cells, read-out: Cytotoxicity (IC50, μM) CEM
Protocol: The toxicity of the compounds was assessed in human PBM, CEM (human lymphoblastoid), and Huh-7 cells, as described previously (see Schinazi R. F., Sommadossi J.-P., Saalmann V., Cannon D. L., Xie M.-Y., Hart G. C., Smith G. A. & Hahn E. F. Antimicrob. Agents Chemother. 1990, 34, 1061-67). Cycloheximide was included as positive cytotoxic control, and untreated cells exposed to solvent were included as negative controls. The cytotoxicity IC50 was obtained from the concentration-response curve using the median effective method described previously (see Chou T.-C. & Talalay P. Adv. Enzyme Regul. 1984, 22, 27-55; Belen'kii M. S. & Schinazi R. F. Antiviral Res. 1994, 25, 1-11).

[4] = 7.5 mg/kg i.p. twice/week, four weeks
[5] = 15 mg/kg 3 times a week for 3.5 weeks
[6] = liver, 15 mg/kg 3 times a week for 3.5 weeks
[7] = liver, 15 mg/kg 3 times a week for 3.5 weeks, vs untreated

With `O=C1Nc2cc(C(=O)N3CCC(Cc4ccccc4)CC3)ccc2Nc2ccccc21` [Compound 1] the “insulin sensitivity compared to the untreated cohort” value [1] was “improves”, the “blood glucose in insulin tolerance test after 100 minutes” value ([1]; 100 minutes after insulin) was 70% and the “blood glucose, initial decrease in insulin tolerance test” value ([1]; after 45 minutes post-injection of insulin) was “approximately 55%”. For the same compound, the “hepatic lipid accumulation and droplet formation (H&E staining)” value (Sgp130FC mice; 7.5 mg/kg i.p. twice a week for four weeks) was “markedly reduces”, the “reduction of liver triglyceride levels” value (Sgp130FC mice; 7.5 mg/kg i.p. twice a week for four weeks, vs saline) was “approximately 3 fold” and the “MicroRNA-18 plasma and liver levels (negative control)” value (Sgp130FC mice; [4]) was “not affected”. The “liver and muscle triglyceride levels” value (Sgp130FC mice; [4]) was “reduces”, the “miR-122 expression (plasma, liver)” value (Sgp130FC mice; [4]) was “increases” and the “biomarkers of inflammation (Tgfb2 and TgfbR2) and fibrosis (Acta1, Col1A1 and Col3A1), liver mRNA” value [2, 5] was “reducing”. For the same compound, the “biomarkers of liver injury, AST and ALT (plasma)” value [2, 5] was “significantly improved”, the “mature miR-122 in tissue and in plasma” value [2, 5] was “increased” and the “liver vasculature (CD34 staining)” value ([2]; data not shown) was “no effect”. The “T-cell density by CD3 staining” value [2, 6] was “decreased”, the “immune infiltrate by H&E staining” value [2, 6] was “decreased” and the “levels of myeloid infiltrate by F4/80 staining” value [2, 6] was “decreased”. The “reduction of fibrotic areas, Masson Trichrome (M.T)” value [2, 7] was 5 fold, the “reduction of fibrotic areas, α-SMA” value [2, 7] was 7 fold and the “toxicity to the cells as measured by LDH release” value (HuH7 cell) was “no apparent toxicity”. For the same compound, the IC50 [3] was 11 µM.

Reference: patent publication US12318393B2, “Modulators of orphan nuclear receptors for NASH and other metabolic disorders” (Emory University, priority 2018, dated 2025)
